The values that follow come from patent US6984404B1, “Methods for preparing coated drug particles and pharmaceutical formulations thereof” (University of Florida Research Foundation, Inc., priority 1998, dated 2006).

Several values for one entry are separate records, joined by “and”; a condition that tells them apart may be missing. Identical values can stand only once. Like-named read-outs stand apart in the source and are kept apart here.

Data set [1] has as its system plasma protein. The following applies: cited from earlier work.
For data set [2] the following is noted: cited from earlier work; for half-life after intravenous administration: intravenous (FP: terminal half-life).
The nature of data set [3]: Plasma concentration after intratracheal administration in rats. It counts as in vivo. The method, then:
Characterization of films deposited on silicon wafers or glass slides was performed using SEM. FTIR, and NMR to characterize polymer structure and morphology. The BUD10 and BUD25 coated powders were tested in vitro to assess differences in the dissolution rates. […] Comparison of the plasma concentrations after IT administration of the coated powders with uncoated BUD powders and IV administration of BUD solution, as well as with FP after IT administration, were performed to compare absorption rates. Finally, the pulmonary targeting of coating BUD25 powders after IT administration was compared with the pulmonary targeting of uncoated BUD and FP powders after IT administration and BUD solution after IV administration. Verification of deposited polymer on silicon wafers using NMR and FTIR was used to characterize molecular structure.

For data set [4] the following is noted: cited from earlier work; for pulmonary deposition ratio, MDI: metered dose inhaler (TA: Azmacort MDI with spacer).
Data set [5] has as its target T1, glucocorticoid receptor (GR) (Homo sapiens, UniProt P04150).
T1 sequence (P04150 1-777): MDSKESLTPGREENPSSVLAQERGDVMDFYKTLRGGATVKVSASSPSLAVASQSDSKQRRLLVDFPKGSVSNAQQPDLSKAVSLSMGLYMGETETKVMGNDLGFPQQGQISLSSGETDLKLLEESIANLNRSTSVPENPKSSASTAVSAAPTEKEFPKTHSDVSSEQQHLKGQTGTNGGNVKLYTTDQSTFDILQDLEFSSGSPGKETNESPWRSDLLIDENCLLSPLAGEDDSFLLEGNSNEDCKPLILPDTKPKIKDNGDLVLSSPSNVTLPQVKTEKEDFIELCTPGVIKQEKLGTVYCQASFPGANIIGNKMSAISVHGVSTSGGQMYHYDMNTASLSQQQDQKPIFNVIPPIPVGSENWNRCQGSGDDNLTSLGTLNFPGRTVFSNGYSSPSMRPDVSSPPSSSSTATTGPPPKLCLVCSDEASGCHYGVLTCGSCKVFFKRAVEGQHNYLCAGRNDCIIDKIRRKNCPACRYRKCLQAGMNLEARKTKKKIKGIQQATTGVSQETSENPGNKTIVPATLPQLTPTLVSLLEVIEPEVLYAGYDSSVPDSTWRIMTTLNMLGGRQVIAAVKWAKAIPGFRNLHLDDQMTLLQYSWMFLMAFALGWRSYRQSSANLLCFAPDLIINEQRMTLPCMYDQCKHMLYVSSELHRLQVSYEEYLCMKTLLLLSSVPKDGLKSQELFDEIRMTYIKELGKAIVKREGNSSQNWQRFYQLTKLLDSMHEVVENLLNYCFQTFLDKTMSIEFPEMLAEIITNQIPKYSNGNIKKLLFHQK
The following applies: cited from earlier work.

The conditions of data set [6]: rats; cited from earlier work.

As for `CCCC1O[C@@H]2C[C@H]3[C@@H]4CCC5=CC(=O)C=C[C@]5(C)[C@H]4[C@@H](O)C[C@]3(C)[C@]2(C(=O)CO)O1` (stereo partly shown) [Budesonide, budesonide], the plasma protein binding in data set [1] was 88%. In data set [2] (after inhalation via Turbohaler), the Cmax was 3.5 nM. Besides, in data set [2] (approximately the same after intravenous and inhalation administration), the plasma half-life was 2.8 h. Besides, in data set [2] (in vivo), the oral bioavailability is 11% and the “volume of distribution at steady state” value was 183 L. Besides, in data set [2] (oral), the “first-pass metabolism of an oral dose” value was “About 89%”. Further, the “time of peak plasma concentration” value in data set [3] is 0.5 h. In addition, in data set [3] (calculated), the MAT was 0.3 h.
For `CCC(=O)O[C@]1(C(=O)SCF)[C@H](C)C[C@H]2[C@@H]3C[C@H](F)C4=CC(=O)C=C[C@]4(C)[C@@]3(F)[C@@H](O)C[C@@]21C` [FP, fluticasone propionate], the “pulmonary deposition ratio, DPI” value in data set [4] (dry powder inhaler) is reported as 15%. Also, the “pulmonary deposition ratio, MDI” value in data set [4] is 26%. Besides, in data set [5], the “receptor binding affinity (RBA)” value was 1800. The plasma protein binding in data set [1] was 90%. In data set [2] (Möllmann et al., 1998), the “t1/2 (dose-dependent)” value is 5.2 to 7.4 h and 6.0 ± 0.7 h. Besides, the “terminal half-life after inhalation” value in data set [2] (Thorsson et al. 1997) is 10 h. Besides, the “mean absorption time (MAT)” value in data set [2] (after inhalation) was 4.9 h. Further, in data set [2] (in vivo), the oral bioavailability result is “less than 1%”, the clearance was 66 L/h, the “drug excreted in the feces” value was 87–100% and the “excreted as the inactive 17-carboxylic acid” value was 340%. Besides, the “volume of distribution at steady state” value in data set [2] (in vivo) is 318 L. The “overall bioavailability after inhalation” value in data set [2] (inhalation) was 10–15%. Also, in data set [2] (inhaled), the “mean residence time after inhaled administration (AUMC/AUC)” value is 9.1 ± 1.1 h and 7.8 to 11 h. In addition, in data set [2], the “half-life after intravenous administration” value was 7.7 to 8.3 h.
For `CC1(C)O[C@@H]2C[C@H]3[C@@H]4CCC5=CC(=O)C=C[C@]5(C)[C@@]4(F)[C@@H](O)C[C@]3(C)[C@]2(C(=O)CO)O1` [TA, triamcinolone acetonide], in data set [4], the “pulmonary deposition ratio, MDI” value is listed as “approximately 22%”. Besides, the plasma protein binding in data set [1] was 71%. Moreover, in data set [2] (after intravenous administration), the mean residence time was 2.7 h. In addition, in data set [2] (by the difference in half-lives of intravenous versus inhaled doses), the “absorption of suspension in the lungs” value is ~2 h. In addition, in data set [2] (in vivo), the oral bioavailability was 20–25%, the clearance is 37.3 L/h and the volume of distribution was 100 to 150 L. In data set [2] (inhaled), the “half-life after inhaled dose” value was 3.6 h. Moreover, in data set [2], the “half-life after intravenous administration” value was 1.4 to 2.0 h.
As for `CC(C)NCC(O)c1ccc(O)c(O)c1` (stereo not shown) [free isopreternol, isoproterenol], in data set [6], the “duration of amelioration of bronchoconstriction” value was 30 min.
Take Triamcinolone acetonide phosphate [TAP]: the plasma half-life in data set [2] (IV administration in humans) is 0.05 to 0.067 h.
